In ChEMBL document CHEMBL1201862, “PubChem BioAssay data set” (2004):
The source made the active and inactive calls.

Columns and labels:
[1] = molecular target: T1, Leucine aminopeptidase (Plasmodium falciparum 3D7, UniProt Q8IL11); experiment: P. falciparum M17LAP inhibitors, primary screen, biochemical, fluorogenic H-Leu-NHMec substrate, 1536-well (AID 1619); format: functional
T1 sequence (Q8IL11 whole entry): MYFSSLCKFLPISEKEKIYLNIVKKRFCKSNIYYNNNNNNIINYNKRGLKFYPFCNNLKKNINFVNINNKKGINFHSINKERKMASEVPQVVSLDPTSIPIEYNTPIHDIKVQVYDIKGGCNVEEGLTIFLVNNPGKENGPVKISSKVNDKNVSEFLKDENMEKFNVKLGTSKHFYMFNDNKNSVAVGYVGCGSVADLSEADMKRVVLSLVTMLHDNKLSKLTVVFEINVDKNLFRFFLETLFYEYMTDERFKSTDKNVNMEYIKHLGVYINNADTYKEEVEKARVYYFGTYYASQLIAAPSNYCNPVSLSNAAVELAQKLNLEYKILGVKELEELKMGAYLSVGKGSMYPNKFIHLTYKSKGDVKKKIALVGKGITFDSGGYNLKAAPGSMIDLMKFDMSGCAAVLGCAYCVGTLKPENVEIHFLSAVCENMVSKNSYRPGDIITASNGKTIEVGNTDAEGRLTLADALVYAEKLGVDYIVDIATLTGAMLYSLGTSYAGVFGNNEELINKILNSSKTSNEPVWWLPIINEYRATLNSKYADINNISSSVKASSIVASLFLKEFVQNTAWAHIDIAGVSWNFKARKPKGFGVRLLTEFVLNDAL

[2] = molecular target: Cytochrome P450 3A4 (Homo sapiens, UniProt P08684);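 also: CYP3A4 tested as one member of a cytochrome P450 panel screen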
[3] = molecular target: Cytochrome P450 2C9 (Homo sapiens, UniProt P11712)
[4] = molecular target: T2, Cytochrome P450 1A2 (Homo sapiens, UniProt P05177);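 also: PubChem cytochrome P450 panel assay, CYP1A2 panel member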
T2 sequence (P05177 whole entry): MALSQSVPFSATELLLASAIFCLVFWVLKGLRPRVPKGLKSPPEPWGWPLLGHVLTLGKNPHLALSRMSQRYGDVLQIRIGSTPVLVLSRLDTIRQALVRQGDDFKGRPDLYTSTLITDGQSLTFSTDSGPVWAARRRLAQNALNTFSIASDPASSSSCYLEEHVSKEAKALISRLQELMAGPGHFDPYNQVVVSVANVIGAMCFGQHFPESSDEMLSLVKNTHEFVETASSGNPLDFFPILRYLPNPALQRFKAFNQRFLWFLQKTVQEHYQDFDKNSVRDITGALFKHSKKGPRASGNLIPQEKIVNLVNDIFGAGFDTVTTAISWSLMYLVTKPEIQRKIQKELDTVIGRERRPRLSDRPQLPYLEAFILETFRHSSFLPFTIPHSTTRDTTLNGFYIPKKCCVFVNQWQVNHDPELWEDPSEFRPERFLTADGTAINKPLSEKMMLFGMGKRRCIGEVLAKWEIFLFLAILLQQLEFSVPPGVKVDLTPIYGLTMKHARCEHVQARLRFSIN

[5] = tested on: HEK293; experiment: EBV LMP1 TES2 canonical NF-kB signalling blockers – cell-based, HEK293, luciferase, cherry-pick, dose response (AID 588343); format: functional; conditions: Homo sapiens
[6] = molecular target: T3, Estrogen receptor (Homo sapiens, UniProt P03372);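 also: potency for inhibiting coactivator peptide recruitment to the receptor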
T3 sequence (P03372 whole entry): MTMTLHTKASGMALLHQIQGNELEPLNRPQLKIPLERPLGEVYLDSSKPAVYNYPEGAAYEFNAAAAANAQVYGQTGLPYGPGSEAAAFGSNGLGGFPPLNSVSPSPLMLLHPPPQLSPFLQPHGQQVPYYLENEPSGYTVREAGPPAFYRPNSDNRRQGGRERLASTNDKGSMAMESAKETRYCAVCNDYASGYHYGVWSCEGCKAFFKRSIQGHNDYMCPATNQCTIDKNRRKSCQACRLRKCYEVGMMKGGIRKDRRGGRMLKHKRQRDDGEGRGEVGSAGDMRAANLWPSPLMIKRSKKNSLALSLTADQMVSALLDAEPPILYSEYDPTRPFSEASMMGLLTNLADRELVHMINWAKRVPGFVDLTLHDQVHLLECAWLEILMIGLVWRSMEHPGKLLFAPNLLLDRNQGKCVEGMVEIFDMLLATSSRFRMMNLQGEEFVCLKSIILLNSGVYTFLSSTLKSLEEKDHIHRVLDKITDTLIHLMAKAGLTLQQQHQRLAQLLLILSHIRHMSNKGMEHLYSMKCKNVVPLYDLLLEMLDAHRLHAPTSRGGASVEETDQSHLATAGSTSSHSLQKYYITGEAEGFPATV

[7] = molecular target: Eukaryotic translation initiation factor 4E (Mus musculus, UniProt P63073); experiment: blockers of eIF4G binding by eIF4E – biochemical, TR-FRET, dose response (AID 855); format: functional;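 also: potency for disrupting eIF4E binding to eIF4GI seen as loss of FRET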
[8] = HIV-1 Vif–A3G interaction blockers – biochemical, TR-FRET, GST-Vif 1-94, biotin-A3G peptide, dose response retest, primary screen (AID 1117319); format: functional;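 also: TR-FRET signal of purified GST-Vif binding a biotinylated A3G peptide; inhibitors lower the FRET signal by blocking Vif and A3G binding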
[9] = viability inhibitors of stage V gametocytes – luminescence, dose response (AID 1117278); format: functional, cell-based;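 also: gametocytes exposed to compound for 24 hours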
[10] = viability loss in human Jurkat cells – cell-based, luminescence, cytotoxicity control for P. falciparum gametocyte viability project, dose response (AID 1117277); format: functional;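 also: potency reflects loss of cellular ATP meaning fewer viable cells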
[11] = tested on: HeLa; experiment: viability loss in HeLa cells – cell-based, 24 h, cherry-picked samples, cytotoxicity control, dose response (AID 504726); format: functional; conditions: Homo sapiens;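 also: potency for cytotoxicity as loss of luminescence signal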
[12] = molecular target: DNA damage-inducible transcript 3 protein (Mus musculus, UniProt P35639); format: functional, Cricetulus griseus
[13] = molecular target: T4, X-box-binding protein 1 (Homo sapiens, UniProt P17861); format: functional, Cricetulus griseus;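 also: confirmatory dose-response counter-screen serving a CHOP assay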
T4 sequence (P17861 whole entry): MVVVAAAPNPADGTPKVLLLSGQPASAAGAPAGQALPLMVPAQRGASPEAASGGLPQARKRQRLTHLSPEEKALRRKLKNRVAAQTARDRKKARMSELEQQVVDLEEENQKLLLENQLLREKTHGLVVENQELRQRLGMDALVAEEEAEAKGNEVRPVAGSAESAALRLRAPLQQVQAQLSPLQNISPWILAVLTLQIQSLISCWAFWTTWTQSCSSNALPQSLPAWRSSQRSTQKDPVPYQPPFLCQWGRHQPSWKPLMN

[14] = molecular target: T5, Heat shock factor protein 1 (Mus musculus, UniProt P38532); experiment: decrease of HSF1-responsive luciferase luminescence – cell-based, NIH3T3, dose retest, confirmation (AID 2382); format: functional;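 also: NIH3T3 fibroblasts with HSF1-driven luciferase reporter stressed by proteasome inhibitor MG132; luminescence from HSF1-driven luciferase expression after 8 hours of MG132 stress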
T5 sequence (P38532 whole entry): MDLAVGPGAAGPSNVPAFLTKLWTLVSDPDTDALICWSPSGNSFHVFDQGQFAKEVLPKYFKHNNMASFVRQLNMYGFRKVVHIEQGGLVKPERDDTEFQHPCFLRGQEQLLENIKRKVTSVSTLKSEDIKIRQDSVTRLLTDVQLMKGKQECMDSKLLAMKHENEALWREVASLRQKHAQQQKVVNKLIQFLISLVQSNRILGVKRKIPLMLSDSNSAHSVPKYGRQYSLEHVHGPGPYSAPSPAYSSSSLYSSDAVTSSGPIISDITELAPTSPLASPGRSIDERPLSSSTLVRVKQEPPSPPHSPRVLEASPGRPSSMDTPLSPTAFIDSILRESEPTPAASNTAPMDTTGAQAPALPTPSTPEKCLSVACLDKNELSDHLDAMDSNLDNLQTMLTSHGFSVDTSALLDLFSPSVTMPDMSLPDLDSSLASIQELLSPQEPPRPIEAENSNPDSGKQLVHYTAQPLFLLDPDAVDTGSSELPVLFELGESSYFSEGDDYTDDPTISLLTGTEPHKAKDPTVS

[15] = molecular target: T6, Protein Tat (Human immunodeficiency virus type 1 group M subtype B (isolate HXB2)(HIV-1), UniProt P04608); format: functional;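 also: tat binding to TAR RNA read out by fluorescence polarization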
T6 sequence (P04608 whole entry): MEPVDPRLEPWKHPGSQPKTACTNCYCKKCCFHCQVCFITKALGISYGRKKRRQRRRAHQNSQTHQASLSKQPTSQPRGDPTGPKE

[16] = molecular target: Endoplasmic reticulum aminopeptidase 1 (Homo sapiens, UniProt Q9NZ08); experiment: inhibition of human ERAP1 enzyme activity – biochemical, cherry-pick, set 2, plate reader, dose response (AID 743314)
[17] = viability loss in THP-1 monocytes – THP-1 cells, cytotoxicity control for Vif-APOBEC3G degradation inhibitor project, dose response (AID 1117359); format: functional; conditions: THP-1
[18] = THP-1 cell cytotoxicity, dose response, cytotoxicity control for non-replicating M. tuberculosis project (AID 489025); format: functional
[19] = Vero E6 cell cytotoxicity, dose response, cytotoxicity control for non-replicating M. tuberculosis project, secondary assay (AID 492998); format: functional, VeroE6; conditions: Vero C1008
[20] = HepG2 cell cytotoxicity, dose response, cytotoxicity control for non-replicating M. tuberculosis project (AID 489018); format: functional; conditions: Mycobacterium tuberculosis
[21] = cells; format: functional
[22] = molecular target: Induced myeloid leukemia cell differentiation protein Mcl-1 (Homo sapiens, UniProt Q07820); format: functional
[23] = viability of uninfected HEp-2 cells – cell-based, HTS, cytotoxicity control for RSV inhibitor project, dose response (AID 2410); format: functional; conditions: human respiratory syncytial virus

Chain of Endoplasmic reticulum aminopeptidase 1 (Q9NZ08 whole entry): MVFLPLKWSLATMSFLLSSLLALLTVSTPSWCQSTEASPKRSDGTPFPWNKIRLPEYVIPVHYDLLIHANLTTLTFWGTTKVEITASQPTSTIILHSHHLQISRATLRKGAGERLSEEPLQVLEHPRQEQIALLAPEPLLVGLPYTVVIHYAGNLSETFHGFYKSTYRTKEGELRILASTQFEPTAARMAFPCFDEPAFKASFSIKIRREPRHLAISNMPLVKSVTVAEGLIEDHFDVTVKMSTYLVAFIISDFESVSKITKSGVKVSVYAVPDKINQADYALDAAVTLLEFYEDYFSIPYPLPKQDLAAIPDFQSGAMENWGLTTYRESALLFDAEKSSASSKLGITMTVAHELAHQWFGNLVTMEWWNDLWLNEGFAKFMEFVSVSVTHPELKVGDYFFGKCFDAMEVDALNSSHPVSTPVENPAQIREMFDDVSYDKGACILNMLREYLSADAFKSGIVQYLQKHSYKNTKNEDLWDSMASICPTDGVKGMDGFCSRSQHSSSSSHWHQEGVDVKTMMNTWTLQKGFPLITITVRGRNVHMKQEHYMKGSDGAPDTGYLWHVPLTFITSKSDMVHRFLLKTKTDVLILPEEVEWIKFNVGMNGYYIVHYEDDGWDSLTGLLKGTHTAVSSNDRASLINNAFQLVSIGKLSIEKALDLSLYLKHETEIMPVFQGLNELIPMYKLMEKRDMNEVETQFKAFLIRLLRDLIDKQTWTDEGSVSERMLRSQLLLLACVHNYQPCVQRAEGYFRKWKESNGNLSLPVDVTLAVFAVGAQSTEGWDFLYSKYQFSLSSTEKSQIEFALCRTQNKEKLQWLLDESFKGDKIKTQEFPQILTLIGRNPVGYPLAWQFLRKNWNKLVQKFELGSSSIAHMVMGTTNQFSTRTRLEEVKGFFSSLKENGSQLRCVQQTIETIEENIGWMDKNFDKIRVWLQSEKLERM
Chain of Eukaryotic translation initiation factor 4E (P63073 whole entry): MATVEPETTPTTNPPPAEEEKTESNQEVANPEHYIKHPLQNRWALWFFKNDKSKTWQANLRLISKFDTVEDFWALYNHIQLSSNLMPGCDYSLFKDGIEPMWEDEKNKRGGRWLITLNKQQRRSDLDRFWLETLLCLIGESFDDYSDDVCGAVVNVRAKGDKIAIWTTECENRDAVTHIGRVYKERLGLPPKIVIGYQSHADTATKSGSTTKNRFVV
Chain of DNA damage-inducible transcript 3 protein (P35639 whole entry): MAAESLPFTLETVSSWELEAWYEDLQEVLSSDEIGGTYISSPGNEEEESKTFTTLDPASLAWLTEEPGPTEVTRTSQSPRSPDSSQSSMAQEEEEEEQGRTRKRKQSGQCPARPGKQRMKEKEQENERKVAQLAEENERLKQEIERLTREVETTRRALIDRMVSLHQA
Chain of Cytochrome P450 3A4 (P08684 whole entry): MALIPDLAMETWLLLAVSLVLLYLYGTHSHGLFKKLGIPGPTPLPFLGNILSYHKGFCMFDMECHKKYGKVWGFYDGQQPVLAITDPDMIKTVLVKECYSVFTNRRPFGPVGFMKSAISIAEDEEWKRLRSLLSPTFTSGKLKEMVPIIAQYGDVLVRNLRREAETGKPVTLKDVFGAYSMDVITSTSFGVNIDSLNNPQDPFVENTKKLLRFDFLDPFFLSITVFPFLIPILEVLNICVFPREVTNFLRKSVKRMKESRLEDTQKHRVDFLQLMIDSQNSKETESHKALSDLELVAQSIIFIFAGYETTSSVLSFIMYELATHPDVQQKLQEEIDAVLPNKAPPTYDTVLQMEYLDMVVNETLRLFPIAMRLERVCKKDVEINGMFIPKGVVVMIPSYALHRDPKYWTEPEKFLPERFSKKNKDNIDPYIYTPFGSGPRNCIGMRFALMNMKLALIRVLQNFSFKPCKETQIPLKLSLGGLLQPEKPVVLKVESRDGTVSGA
Chain of Induced myeloid leukemia cell differentiation protein Mcl-1 (Q07820 whole entry): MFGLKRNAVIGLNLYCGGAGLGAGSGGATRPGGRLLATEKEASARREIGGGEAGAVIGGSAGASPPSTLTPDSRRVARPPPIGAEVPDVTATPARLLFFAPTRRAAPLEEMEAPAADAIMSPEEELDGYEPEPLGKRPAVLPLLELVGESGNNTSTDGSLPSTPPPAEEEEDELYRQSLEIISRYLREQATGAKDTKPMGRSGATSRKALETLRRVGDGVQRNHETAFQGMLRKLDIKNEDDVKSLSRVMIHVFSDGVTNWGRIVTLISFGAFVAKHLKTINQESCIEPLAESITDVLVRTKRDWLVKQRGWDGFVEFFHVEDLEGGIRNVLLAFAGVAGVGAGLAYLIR
Chain of Cytochrome P450 2C9 (P11712 whole entry): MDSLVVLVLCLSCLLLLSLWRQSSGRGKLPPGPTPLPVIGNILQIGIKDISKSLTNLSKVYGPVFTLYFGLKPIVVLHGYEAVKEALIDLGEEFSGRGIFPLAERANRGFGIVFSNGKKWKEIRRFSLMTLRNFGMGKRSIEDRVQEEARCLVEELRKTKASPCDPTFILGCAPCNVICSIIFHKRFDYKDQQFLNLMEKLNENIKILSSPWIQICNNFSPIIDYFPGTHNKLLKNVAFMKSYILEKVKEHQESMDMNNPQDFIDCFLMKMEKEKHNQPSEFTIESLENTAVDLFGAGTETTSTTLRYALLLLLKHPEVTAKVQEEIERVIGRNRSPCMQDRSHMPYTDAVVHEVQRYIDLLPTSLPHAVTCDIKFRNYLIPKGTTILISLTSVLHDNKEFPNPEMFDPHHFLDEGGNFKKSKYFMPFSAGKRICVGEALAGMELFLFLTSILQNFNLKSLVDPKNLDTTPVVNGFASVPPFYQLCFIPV

## O=C(O)c1ccccc1-c1ccccc1C(=O)Nc1ccc2c(c1)[nH]c(=O)c1ccccc12
[1]
  IC50: 38.8 µM (active)
[2]
  AC50: 3.98 µM (inconclusive)
[3]
  AC50: 3.16 µM (inconclusive)
[4]
  AC50: 0.00316 µM (inconclusive)

## O=C(Nc1ccc2c(c1)nc1n2CCSC1)c1ccco1
[5]
  AC50: 3.52 µM (active)
[6]
  IC50: 14.5 µM (active)

## CCOc1cc(C2c3c(C)n[nH]c3C(=O)N2c2ccc(C)cc2)ccc1O (stereo unspecified)
[7]
  IC50: > 64 µM (inactive)

## CC1CCN(C(=S)c2ccccc2O)CC1
[7]
  IC50: > 64 µM (inactive)

## COc1ccc(N(CC(=O)NCc2ccccc2C)S(=O)(=O)c2ccc(C)cc2)cc1OC
[8]
  IC50: > 100 µM (active)

## COCCn1cnc2c1c(=O)n(CC(=O)Nc1cc(C)on1)c(=O)n2Cc1ccccc1
[9]
  IC50: > 109 µM (inactive)
[10]
  IC50: > 83.3 µM (inactive)

## Cc1ccc(OCC(=O)O/N=C(\N)Cc2ccc([N+](=O)[O-])cc2)cc1C
[11]
  AC50: > 350 µM (inactive)

## Cc1cc(NC(=O)CSc2nc3cc4c(cc3c(=O)n2CCc2ccccc2)OCO4)no1
[12]
  Absolute IC50 (CHOP): 10 µM
[13]
  Absolute IC50 (XBP1): 10 µM

## CCCn1nc(C(=O)OCC(=O)c2ccc3c(c2)NC(=O)CO3)c2ccccc2c1=O
[6]
  IC50: 37.9 µM (not active)

## O=C(COC(=O)Cc1c(Cl)cccc1Cl)Nc1ccc(OC(F)(F)F)cc1
[13]
  Absolute IC50 (XBP1): 10 µM
[14]
  EC50: > 195 µM (not active)

## COCCCNC(=O)c1cccn2c(=O)c3cc4ccccc4cc3nc12
[15]
  IC50: > 100 µM (active)

## CCCc1cc(=O)oc2c(CN3CCN(C)CC3)c(O)ccc12
[16]
  AC50: 7.87 µM (active)

## COc1ccc(CN2C(=O)c3ccccc3C2C(=O)NCc2cccnc2)c(OC)c1 (stereo unspecified)
[8]
  IC50: > 100 µM (active)

## S=C(Nc1ccc2c(c1)OCCO2)Nc1ccc2c(c1)OCO2
[15]
  IC50: > 100 µM (active)
[17]
  CC50: > 40 µM (active)
[8]
  IC50: > 100 µM (active)

## O=C(Nc1nnc(C2CC2)o1)c1ccc(S(=O)(=O)N2CCCCC2)cc1
[18]
  CC50: > 40 µM (active)
[19]
  CC50: 11.5 µM (active)
[20]
  CC50: > 20 µM (active)
[21]
  IC50: 10.3 µM (active)

## CC(C)=CCc1c(O)c(CC=C(C)C)c2c(c1O)C(=O)CC(c1ccc(O)cc1)O2 (stereo unspecified)
[13]
  Absolute IC50 (XBP1): 10 µM

## Cc1ccc(OCc2ccc(C(=O)O)o2)c([N+](=O)[O-])c1
[1]
  IC50: 31.8 µM (active)

## Cc1cc(=O)oc2cc(NS(=O)(=O)c3ccc(F)cc3)ccc12
[16]
  AC50: 8.8 µM (active)

## CCCn1c(O)nnc1SCC(=O)c1cc(C)ccc1C
[8]
  IC50: > 100 µM (active)

## Cc1c(N)cc(S(=O)(=O)O)cc1NC(=O)c1cccc([N+](=O)[O-])c1
[11]
  AC50: 56.4 µM (active)

## COc1cccc(OCCNc2ccc([N+](=O)[O-])cn2)c1
[11]
  AC50: 49.3 µM (active)

## Cc1cc(S(=O)(=O)NC2CCN(Cc3ccccc3)CC2)c(C)cc1Cl
[11]
  AC50: 52.3 µM (active)

## CCOc1ccc(S(=O)(=O)N2CCCC2)cc1
[9]
  IC50: > 109 µM (inactive)
[10]
  IC50: > 83.3 µM (inactive)

## Cc1ccc(S(=O)(=O)N2CCN(C(=O)CCC(=O)NCCc3ccc(F)cc3)CC2)cc1
[9]
  IC50: > 109 µM (inactive)
[10]
  IC50: > 83.3 µM (inactive)

## Cc1ccc(/C=c2\sc3nc(-c4ccco4)nn3c2=O)o1
[22]
  IC50: 4.61 µM (active)
[6]
  IC50: 13.9 µM (active)

## Cc1ccc(NCC(=O)N/N=C/c2cccc(Oc3ccccc3)c2)cc1
[12]
  Absolute IC50 (CHOP): 10 µM
[13]
  Absolute IC50 (XBP1): < 10 µM

## CC(C)CCNCC(O)CON=C1c2ccccc2-c2ccccc21 (stereo unspecified)
[18]
  CC50: 13.8 µM (active)
[20]
  CC50: 14.4 µM (active)
[21]
  IC50: 16.8 µM (active)
[23]
  CC50: 12.6 µM (active)
